Several values for one entry are separate records, joined by “and”; a condition that tells them apart may be missing. Identical values can stand only once. Like-named read-outs stand apart in the source and are kept apart here.
Molecular target: T1, mouse SLC6A19 (Mus musculus, UniProt Q9D687)
T1 construct: expressed in transfected cells
T1 sequence (Q9D687 1-634): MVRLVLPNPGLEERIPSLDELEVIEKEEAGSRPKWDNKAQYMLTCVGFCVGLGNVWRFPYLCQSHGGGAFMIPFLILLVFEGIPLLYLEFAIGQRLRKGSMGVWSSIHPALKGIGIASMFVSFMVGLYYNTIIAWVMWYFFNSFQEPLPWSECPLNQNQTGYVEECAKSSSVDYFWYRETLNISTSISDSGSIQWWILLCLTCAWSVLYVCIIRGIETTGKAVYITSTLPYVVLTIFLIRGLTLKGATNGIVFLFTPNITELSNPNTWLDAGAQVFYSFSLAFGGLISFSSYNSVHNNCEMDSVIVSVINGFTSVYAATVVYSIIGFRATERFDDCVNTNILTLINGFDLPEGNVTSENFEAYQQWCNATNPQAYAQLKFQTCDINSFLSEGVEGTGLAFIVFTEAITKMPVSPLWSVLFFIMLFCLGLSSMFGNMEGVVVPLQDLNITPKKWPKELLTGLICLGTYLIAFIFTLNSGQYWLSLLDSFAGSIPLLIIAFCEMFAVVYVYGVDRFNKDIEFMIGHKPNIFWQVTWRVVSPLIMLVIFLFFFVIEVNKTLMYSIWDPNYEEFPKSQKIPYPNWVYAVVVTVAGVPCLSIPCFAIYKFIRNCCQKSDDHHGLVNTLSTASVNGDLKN
T1 sequence (Q9ESG4 15-222 partner): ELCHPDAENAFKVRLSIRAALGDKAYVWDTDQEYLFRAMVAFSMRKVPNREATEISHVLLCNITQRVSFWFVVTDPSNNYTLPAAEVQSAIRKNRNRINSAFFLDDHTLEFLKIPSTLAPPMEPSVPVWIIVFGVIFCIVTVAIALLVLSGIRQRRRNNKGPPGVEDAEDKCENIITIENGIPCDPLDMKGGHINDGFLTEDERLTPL
Test: Isoleucine transport assay, Flp-In T-REx 293 cells coexpressing mouse SLC6A19 and TMEM27
Format: cell-based
Settings: for isoleucine transport, Mouse (Fig 1f curve point) / isoleucine transport, Mouse (Fig 1c curve point): technical replicates; for IC50: read-out: IC50 against mouse SLC6A19, isoleucine transport assay
Experimental: Flp-In T-REx 293 cells (Thermo Fisher Scientific) were engineered to coexpress C-terminally V5-tagged human or mouse SLC6A19 under the control of a tetracycline-inducible promoter and human or mouse myc-DDK-tagged TMEM27 under the control of a constitutively active promoter. Cells were maintained in DMEM/F12 medium supplemented with 10% FBS, 100 units/mL penicillin, 100 μg/mL streptomycin, 200 μg/mL hygromycin, 10 μg/mL blasticidin, and 300 μg/mL geneticin (all from Thermo Fisher Scientific) at 37°C and 5% CO2.
Flp-In T-REx 293 cells stably coexpressing human or mouse SLC6A19 and TMEM27 were plated in 384-well plates in the presence of 1 μg/mL tetracyclin (Sigma-Aldrich) to induce the expression of SLC6A19. After 24 hours, cells were washed with live cell imaging solution (LCIS, Thermo Fisher Scientific) before JN-170 or JNT-517 were added to cells in 10-point concentration response curves in 0.5% DMSO in Krebs buffer (140 mM NaCl, 4.7 mM KCl, 2.5 mM CaCl2, 1.2 mM MgCl2, 11 mM HEPES, 10 mM glucose, pH 7.4). Cells were incubated with compounds for 1 hour at room temperature before 1 mM ^13C6,^15N1-labeled L-isoleucine (Cambridge Isotope Laboratories) was added as a transport substrate. After 20 minutes incubation at room temperature, cells were washed and lysed in H2O with 15 μM internal standard D-Leucine-D10 (CDN Isotopes) for 1–2 hours. A standard curve of ^13C6,^15N1-L-isoleucine was added to each plate following cell lysis. Plates were centrifuged at 3,700g to remove cell debris, and supernatant was diluted in 2 steps to a final 1:10 dilution in acetonitrile/0.1% formic acid. Sample desalting was performed on a high throughput RapidFire-365 (Agilent) using a hydrophilic interaction liquid chromatography (HILIC) column. A quantitative time-of-flight (Q-ToF) mass spectrometer (Agilent) was used to detect analytes. Agilent MassHunter quantitative analysis for time of flight was used as the integration software for measuring area under the peak for both ^13C6,^15N1-L-isoleucine and D-Leucine-D10 internal standard.
IC50 values for transport inhibition in cells overexpressing SLC6A19 and TMEM27 were calculated using a 4-parameter logistic regression in Collaborative Drug Discovery (CDD). Reported IC50 values are geometric means of 4–6 independent experiments. For postmortem intestinal transport assays, single outliers of quadruplicate replicates were excluded from the calculation if a signal value’s distance to the mean exceeded 35% of the signal average. The IC50 values of individual experiments were calculated with a 3- or 4-parameter logistic regression using GraphPad Prism 9. The reported IC50 value represents the geometric mean of n = 5 experiments from 3 individual donors. Statistical comparison of urinary Phe excretion in Pah^enu2 mice treated with vehicle or JN-170 was conducted using 1-way analysis of variance (ANOVA) with Tukey’s post hoc comparison. Statistical analysis of baseline-adjusted plasma Phe in mice treated with vehicle or JN-170 was determined by 2-way ANOVA with Dunnett’s post hoc comparison. All statistical analyses were performed using GraphPad Prism 9. For clinical studies, group sizes were not determined based on statistical power calculations. Statistical significance of pharmacodynamic results was not assessed. Values are reported as mean (urinary Phe excretion, T1/2, Cl/F), geometric mean (Cmax/D, AUC0-inf/D), or median (Tmax).

SMILES: N#Cc1ccc(-c2noc([C@]3(C(F)(F)F)CCN(C(=O)NCCC4(N)CC4)C3)n2)cc1 [JN-170]
- isoleucine transport, Mouse (Fig 1f curve point) (0.000722 uM): 84.1 and 94.9
- isoleucine transport, Mouse (Fig 1f curve point) (0.00219 uM): 91.4 and 88.7
- isoleucine transport, Mouse (Fig 1f curve point) (0.00438 uM): 84.6 and 91.9
- isoleucine transport, Mouse (Fig 1f curve point) (0.015313 uM): 82.4 and 86.6
- isoleucine transport, Mouse (Fig 1f curve point) (0.048125 uM): 65.9 and 67.7
- isoleucine transport, Mouse (Fig 1f curve point) (0.144375 uM): 32.3 and 28.6
- isoleucine transport, Mouse (Fig 1f curve point) (0.4375 uM): 14.6 and 12.2
- isoleucine transport, Mouse (Fig 1f curve point) (1.3125 uM): -0.346 and -1.17
- isoleucine transport, Mouse (Fig 1f curve point) (3.9375 uM): -4.28 and -6.91
- isoleucine transport, Mouse (Fig 1f curve point) (11.8125 uM): -7.48 and -5.64
- IC50 (geometric mean n = 6): 97 nM

SMILES: NC(=O)N1CCC[C@@H](N(C(=O)NCc2ccc(OC(F)(F)F)cc2F)C2CC2)C1 [JNT-517]
- isoleucine transport, Mouse (Fig 1c curve point) (0.000722 uM): 87.6 and 103
- isoleucine transport, Mouse (Fig 1c curve point) (0.00219 uM): 108 and 105
- isoleucine transport, Mouse (Fig 1c curve point) (0.00438 uM): 100 and 89.5
- isoleucine transport, Mouse (Fig 1c curve point) (0.0153125 uM): 85.6 and 104
- isoleucine transport, Mouse (Fig 1c curve point) (0.048125 uM): 88.3 and 96.6
- isoleucine transport, Mouse (Fig 1c curve point) (0.144375 uM): 78.2 and 95.8
- isoleucine transport, Mouse (Fig 1c curve point) (0.4375 uM): 86.6 and 108
- isoleucine transport, Mouse (Fig 1c curve point) (1.3125 uM): 93.2 and 97.6
- isoleucine transport, Mouse (Fig 1c curve point) (3.9375 uM): 89 and 86.1
- isoleucine transport, Mouse (Fig 1c curve point) (11.8125 uM): 86 and 88.2
- IC50: > 11800 nM
